Results from the NIST ThermoML archive (doi:10.1016/j.fluid.2015.10.027).

Experiment: heat capacity at constant pressure per volume; xn = mol fraction of the nth substance listed
Settings: DSC

Cc1cccc(C)n1 [2,6-dimethylpyridine] + O
Liquid mixture 1, x1 = 0.066
Settings | heat capacity [J/K/m3]
270.67 K | 3943000
271.17 K | 3939000
271.67 K | 3932000
272.17 K | 3933000
272.67 K | 3929000
273.17 K | 3934000
273.67 K | 3928000
274.17 K | 3930000
274.67 K | 3924000
275.17 K | 3925000
275.67 K | 3922000
276.17 K | 3920000
276.67 K | 3918000
277.17 K | 3918000
277.67 K | 3919000
278.17 K | 3918000
278.67 K | 3916000
279.17 K | 3913000
279.67 K | 3916000
280.17 K | 3914000
280.67 K | 3914000
281.18 K | 3913000
281.68 K | 3910000
282.18 K | 3910000
282.68 K | 3907000
283.18 K | 3907000
283.68 K | 3904000
284.18 K | 3907000
284.68 K | 3905000
285.18 K | 3909000
285.68 K | 3905000
286.18 K | 3903000
286.68 K | 3907000
287.18 K | 3907000
287.68 K | 3910000
288.18 K | 3913000
288.68 K | 3913000
289.18 K | 3912000
289.68 K | 3912000
290.18 K | 3910000
290.68 K | 3913000
291.18 K | 3912000
291.68 K | 3913000
292.18 K | 3916000
292.68 K | 3917000
293.18 K | 3915000
293.68 K | 3911000
294.18 K | 3914000
294.68 K | 3914000
295.18 K | 3913000
295.68 K | 3912000
296.18 K | 3913000
296.68 K | 3912000
297.18 K | 3914000
297.69 K | 3914000
298.19 K | 3918000
298.69 K | 3919000
299.19 K | 3916000
299.78 K | 3918000
299.99 K | 3916000
300.2 K | 3912000
300.41 K | 3920000
300.62 K | 3927000
300.84 K | 3944000
301.05 K | 3932000
301.26 K | 3930000
301.47 K | 3942000
301.69 K | 3950000
301.9 K | 3947000
302.11 K | 3945000
302.32 K | 3932000
302.54 K | 3934000
302.75 K | 3933000
302.96 K | 3962000
303.17 K | 3969000
303.38 K | 3938000
303.6 K | 3938000
303.81 K | 3935000
304.02 K | 3948000
304.23 K | 3973000
304.44 K | 3963000
304.66 K | 3960000
304.87 K | 3953000
305.08 K | 3960000
305.29 K | 3975000
305.51 K | 3976000
305.72 K | 3956000
305.93 K | 4006000
306.14 K | 4011000
306.36 K | 4082000
306.57 K | 4075000

102.6 kPa, Liquid, x1 = 0.066
Settings | heat capacity [J/K/m3]
306.78 K | 4520000
306.99 K | 4372000
307.2 K | 4347000
307.42 K | 4321000
307.63 K | 4254000
307.84 K | 4227000
308.05 K | 4182000
308.27 K | 4223000
308.48 K | 4199000
308.69 K | 4189000
308.9 K | 4170000
309.12 K | 4188000
309.33 K | 4206000
309.54 K | 4165000
309.75 K | 4175000
309.96 K | 4206000
310.18 K | 4189000
310.39 K | 4172000
310.6 K | 4170000
310.81 K | 4154000
311.03 K | 4103000
311.24 K | 4121000
311.45 K | 4142000
311.66 K | 4101000
311.88 K | 4141000
312.09 K | 4083000
312.3 K | 4117000
312.51 K | 4078000
312.73 K | 4100000

CC1CCCC(C)N1 (stereo not given) [2,6-dimethylpiperidine] + [2H]O[2H]
Liquid mixture 1, x1 = 0.054
Settings | heat capacity [J/K/m3]
270.36 K | 4851000
270.67 K | 4851000
270.98 K | 4850000
271.3 K | 4843000
271.61 K | 4841000
271.92 K | 4831000
272.23 K | 4822000
272.54 K | 4813000
272.85 K | 4803000
273.16 K | 4797000
273.47 K | 4793000
273.78 K | 4785000
274.1 K | 4778000
274.41 K | 4775000
274.72 K | 4768000
275.03 K | 4764000
275.34 K | 4752000
275.65 K | 4755000
275.96 K | 4749000
276.27 K | 4742000
276.58 K | 4732000
276.89 K | 4728000
277.21 K | 4720000
277.52 K | 4717000
277.83 K | 4706000
278.14 K | 4700000
278.45 K | 4697000
278.76 K | 4694000
279.07 K | 4693000
279.38 K | 4689000
279.69 K | 4685000
280 K | 4677000
280.32 K | 4675000
280.63 K | 4668000
280.94 K | 4667000
281.25 K | 4661000
281.56 K | 4654000
281.87 K | 4654000
282.18 K | 4653000
282.49 K | 4642000
282.8 K | 4640000
283.12 K | 4641000
283.43 K | 4645000
283.74 K | 4645000
284.05 K | 4638000
284.36 K | 4635000
284.67 K | 4627000
284.98 K | 4628000
285.29 K | 4633000
285.6 K | 4630000
285.91 K | 4623000
286.23 K | 4610000
286.54 K | 4617000
286.85 K | 4623000
287.16 K | 4612000
287.47 K | 4611000
287.78 K | 4609000
288.09 K | 4606000
288.6 K | 4566000
288.82 K | 4558000
289.05 K | 4578000
289.28 K | 4580000
289.51 K | 4581000
289.74 K | 4539000
289.96 K | 4559000
290.19 K | 4609000
290.42 K | 4604000
290.65 K | 4587000
290.88 K | 4581000
291.11 K | 4554000
291.33 K | 4556000
291.56 K | 4590000
291.79 K | 4592000
292.02 K | 4589000
292.25 K | 4578000
292.48 K | 4643000
292.71 K | 4602000
292.94 K | 4606000
293.16 K | 4623000
293.39 K | 4660000
293.62 K | 4615000
293.85 K | 4629000
294.08 K | 4700000
294.31 K | 4655000
294.53 K | 4669000
294.76 K | 4707000
294.99 K | 4644000
295.22 K | 4708000
295.45 K | 4694000
295.68 K | 4733000
295.9 K | 4759000
296.13 K | 4861000
296.36 K | 5146000

102.6 kPa, Liquid, x1 = 0.054
Settings | heat capacity [J/K/m3]
296.59 K | 5567000
296.82 K | 5424000
297.05 K | 5334000
297.28 K | 5260000
297.5 K | 5164000
297.73 K | 5179000
297.96 K | 5136000
298.19 K | 5070000
298.42 K | 5083000
298.65 K | 5094000
298.88 K | 5093000
299.1 K | 5111000
299.33 K | 5023000
299.56 K | 5049000
299.79 K | 5063000
300.02 K | 5028000
300.25 K | 5015000
300.48 K | 5009000
300.7 K | 4961000
300.93 K | 4977000
301.16 K | 4985000
301.39 K | 4958000
301.62 K | 4957000
301.85 K | 4945000
302.07 K | 4916000
302.3 K | 4889000
302.53 K | 4922000
